Results: patent publication US6734292B1, “Pseudoerythromycin derivatives” (The Kitasato Institute, priority 2002, dated 2004)

Tested on: THP-1 cells
Assay: enhancing effect for differentiation-induction from human monocyte to macrophage (THP-1/Mφ system, MTT readout)
Assay type: cell-based
Design: key: ++: enhanced 100% or more; +: enhanced 50-100%; ±: enhanced 25-50%; −: no activity; /: expressed cytoxicity; NT: not tested or under assessment
Conditions: in comparison with enhancing action for differentiation-induction of EM 100 μM
Method: In order to confirm enhancing effect for differentiation-induction of the compounds of the present invention, the enhancing effect for differentiation-induction from human monocyte to macrophage was assayed. Method is performed as follows. THP-1 cells were collected from cultured liquid by centrifugation, adjusted the concentration to 2×10^5 cells/ml using medium (RPMI 1640) and distributed into the 48-well plate at 500 μl/well. PMA solution 10 μl and sample solution 5 μl were added in each well, stirred with mild shaking and incubated at 37° C. for 72-96 hours under 5% CO2. Further MTT 0.5 mg/ml solution was added at 300 μl/well, and incubated at 37° C. for 3 hours under 5% CO2. Supernatant solution was suctioned using the injection tube, added DMSO 500 μl using automatic continuous injector to dissolve formazan completely and transferred each 100 μl to the 96-well plate. The optical absorption was measured using the plate-reader.

SMILES | activities in THP-1/Mφ system, Treated conc. 3 μM | activities in THP-1/Mφ system, Treated conc. 10 μM | activities in THP-1/Mφ system, Treated conc. 30 μM | activities in THP-1/Mφ system, Treated conc. 0.3 μM | activities in THP-1/Mφ system, Treated conc. 1 μM
CC[C@H]1OC(=O)[C@H](C)[C@@H](O[C@H]2C[C@@](C)(OC)[C@@H](O)[C@H](C)O2)[C@H](C)[C@@H](O[C@@H]2O[C@H](C)C[C@H](N(C)C)[C@H]2O)[C@](C)(OC)C[C@@H](C)C(=O)[C@H](C)[C@@H](O)[C@]1(C)O [CAM, reference compound] | − | + (enhanced 50-100%) | − |  | 
CCC(O)C(C)(O)C1OC(=O)C(C)C(OC2CC(C)(OC)C(O)C(C)O2)C(C)C(OC2OC(C)CC(N)C2O)C2(C)CC(C)=C(O2)C1C (stereo not shown) [EM721, bis-de(3′-N-methyl)-8,9-anhydro-pseudo erythromycin A 6,9-hemiketal] | − | + (enhanced 50-100%) |  |  | 
CCNC1CC(C)OC(OC2C(C)C(OC3CC(C)(OC)C(O)C(C)O3)C(C)C(=O)OC(C(C)(O)C(O)CC)C(C)C3=C(C)CC2(C)O3)C1O (stereo not shown) [EM722, bis-de(3′-N-methyl)-3′-N-ethyl-8,9-anhydro-pseudoerythromycin A 6,9-hemiketal] | + (enhanced 50-100%) | ++ (enhanced 100% or more) |  | − | + (enhanced 50-100%)
CC[C@@H](O)[C@@](C)(O)[C@@H]1OC(=O)[C@H](C)[C@@H](O[C@H]2C[C@@](C)(OC)[C@@H](O)[C@H](C)O2)[C@H](C)[C@@H](O[C@@H]2O[C@H](C)C[C@H](N(CC)CC)[C@H]2O)[C@@]2(C)CC(C)=C(O2)[C@@H]1C [EM723, bis-de(3′-N-methyl)-3′,3′-N,N-diethyl-8,9-anhydro-pseudoerythromycin A 6,9-hemiketal] | + (enhanced 50-100%) |  |  | − | + (enhanced 50-100%)
C=CCNC1CC(C)OC(OC2C(C)C(OC3CC(C)(OC)C(O)C(C)O3)C(C)C(=O)OC(C(C)(O)C(O)CC)C(C)C3=C(C)CC2(C)O3)C1O (stereo not shown) [EM724, bis-de(3′-N-methyl)-3′-N-allyl-8,9-anhydro-pseudoerythromycin A 6,9-hemiketal] | + (enhanced 50-100%) | ++ (enhanced 100% or more) |  | − | + (enhanced 50-100%)
C=CCN(CC=C)C1CC(C)OC(OC2C(C)C(OC3CC(C)(OC)C(O)C(C)O3)C(C)C(=O)OC(C(C)(O)C(O)CC)C(C)C3=C(C)CC2(C)O3)C1O (stereo not shown) [EM725, bis-de(3′-N-methyl)-3′,3′-N,N-diallyl-8,9-anhydro-pseudoerythromycin A 6,9-hemiketal] | ± (enhanced 25-50%) | + (enhanced 50-100%) |  |  | −
CCC(O)C(C)(O)C1OC(=O)C(C)C(OC2CC(C)(OC)C(O)C(C)O2)C(C)C(OC2OC(C)CC(NC(C)=O)C2O)C2(C)CC(C)=C(O2)C1C (stereo not shown) [EM726, bis-de(3′-N-methyl)-3′-N-acetyl-8,9-anhydro-pseudoerythromycin A 6,9-hemiketal] | − | − | − | − | −
CCC(O)C(C)(O)C1OC(=O)C(C)C(OC2CC(C)(OC)C(O)C(C)O2)C(C)C(OC2OC(C)CC(N(C)S(C)(=O)=O)C2O)C2(C)CC(C)=C(O2)C1C (stereo not shown) [EM727, de(3′-N-methyl)-3′-N-sulfonyl-8,9-anhydro-pseudoerythromycin A 6,9-hemiketal] | + (enhanced 50-100%) | + (enhanced 50-100%) |  | − | + (enhanced 50-100%)
